Reference: US8680111B2 (Pfizer Inc., priority 2012, dated 2014)
pIC50, pKi: −log10 of the molar value.

Legend:
[1] = target: T1, human recombinant wild-type ALK kinase domain (amino acids 1093-1411) (Homo sapiens, UniProt Q9UM73); assay: Wild-type ALK enzyme assay (microfluidic mobility shift); format: biochemical; details: ATP 60 μM, competitive inhibition fit, read-out: WT ALK enzyme assay (Ki)
T1 construct: ALK kinase domain (amino acids 1093-1411); made in house
Method: The reactions were incubated for 1 h at room temperature, stopped by the addition of 0.1 M EDTA, pH 8, and the extent of reactions (˜15-20% conversion with no inhibitor) was determined after electrophoretic separation of the fluorescently labeled peptide substrate and phosphorylated product on an LabChip EZ Reader II (Caliper Life Sciences, Hopkinton, Mass.).

[2] = target: T2, human recombinant L1196M ALK kinase domain (amino acids 1093-1411) (Homo sapiens, UniProt Q9UM73, L1196M); assay: L1196M mutant ALK enzyme assay (microfluidic mobility shift); format: biochemical; details: ATP 60 μM, 0.5 nM enzyme, competitive inhibition fit; read-out: L1196M ALK enzyme assay (Ki)
T2 construct: ALK kinase domain (amino acids 1093-1411); made in house

[3] = target: T3, L1196M EML4-ALK (NIH-3T3 EML4-ALK v1 L1196M cells) (Homo sapiens, UniProt Q9UM73, L1196M); assay: Cellular phospho-ALK (Tyr1604) ELISA assay for L1196M EML4-ALK; format: cell-based; details: NIH-3T3 EML4-ALK v1 L1196M cells, 1 hour, phospho-ALK (Tyr1604); read-out: ELISA assay for L1196M EML4-ALK (IC50)
T3 construct: expressed in transfected cells; the other entry of the earlier key: EML4 (Q9HC35, Echinoderm microtubule-associated protein-like 4)
Method: Cellular Phospho-ALK (Tyr1604) ELISA Assay for EML4-ALK:
The cells were maintained at 37° C. in a 5% CO2 incubator in DMEM (Invitrogen, Carlsbad, Calif.) medium supplemented with 1% L-glutamine, 1% penicillin and streptomycin, 1 ug/ml puromycin and 10% new born calf serum (NCS) in T-75 flasks.
Cells were washed with PBS and re-suspended in DMEM medium supplemented with 0.5% NCS and 1% pen/strep and seeded into 96-well plates at density of 20,000 cells/well/100 μl and incubated in the incubator at 37° C. and 5% CO2. After 20 hours of incubation, 100 μl of assay media (DMEM) in presence of designated PF-compounds concentrations or controls (DMSO) were added into plates and incubated for 1 hour in the incubator. Media was then removed and lysis buffer, containing phosphatase inhibitors and phenylmethanesulfonyl fluoride (PMSF), was added to wells and shaken at 4° C. for 30 minutes to generate protein lysates.
A phospho-ALK (Tyr1604) rabbit antibody was coated onto the 96-well microplates. 50 μl of cell lysates were added to the antibody coated plate and incubated at room temperature for 2 hours. Following extensive washing with 0.1% Tween 20 in PBS to remove unbound materials, ALK mouse mAb was added to detect captured phospho-ALK (Tyr1604) and phospho-ALK fusion proteins. Anti-mouse IgG, HRP-linked antibody was then used to recognize the bound detection antibody. Finally, the chemiluminescent reagent was added and incubated for 10 minutes for signal development. The assay plates were read in the Envision plate reader in the luminescent mode. IC50 values were calculated by a concentration-response curve fitting using a four-parameter analytic method.

[4] = target: T4, WT EML4-ALK (NIH-3T3 EML4-ALK wt v1 cells) (Homo sapiens, UniProt Q9UM73); assay: Cellular phospho-ALK (Tyr1604) ELISA assay for WT EML4-ALK; format: cell-based; details: 1 hour, read-out: ELISA assay for WT EML4-ALK (IC50)
T4 construct: expressed in transfected cells; the other entry of the earlier key: EML4 (Q9HC35, Echinoderm microtubule-associated protein-like 4)

Compound | pKi [1] | pKi [2] | pIC50 [3] | pIC50 [4]
CC1Oc2nc(cnc2N)-c2c(nn(C)c2C#N)COCc2ccc(F)cc21 (single isomer, unassigned) [Example 105, 7-amino-12-fluoro-2,10-dimethyl-2,10,15,17-tetrahydro-8,4-(azeno)pyrazolo[4,3-h][2,11,5]benzodioxazacyclotetradecine-3-carbonitrile] | 8.52 | 7.78 | 6.19 | 6.94
Cc1nn(C)c2c1-c1cnc(N)c(c1)OC(C)c1cc(F)ccc1C(=O)N(C1CC1)C2 (single isomer, unassigned) [Example 11, 7-amino-16-cyclopropyl-12-fluoro-1,3,10-trimethyl-16,17-dihydro-1H-8,4-(metheno)pyrazolo[4,3-h][2,5,11]benzoxadiazacyclotetradecin-15(10H)-one] | > 9.70 | 8.96 | 7.56 | 8.92
COc1c2c(nn1C)CN(C)C(=O)c1ccc(F)cc1C(C)Oc1cc-2cnc1N (single isomer, unassigned) [Example 19, 7-amino-12-fluoro-3-methoxy-2,10,16-trimethyl-16,17-dihydro-2H-8,4-(metheno)pyrazolo[4,3-h][2,5,11]benzoxadiazacyclotetradecin-15(10H)-one] | > 9.70 | 9.05 | 6.96 | 8.31
CC(C)n1nc2c(c1C#N)-c1cnc(N)c(n1)O[C@H](C)c1cc(F)ccc1C(=O)N(C)C2 [Example 92, (10R)-7-amino-12-fluoro-10,16-dimethyl-15-oxo-2-(propan-2-yl)-10,15,16,17-tetrahydro-2H-8,4-(azeno)pyrazolo[4,3-h][2,5,11]benzoxadiazacyclotetradecine-3-carbonitrile] | 9.64 | 9.68 | 8.44 | 9.33
C[C@H]1Oc2cc(cnc2N)-c2c(nn(C)c2C#N)CN(C2CC2)C(=O)c2ccc(F)cc21 [Example 55, (10R)-7-amino-16-cyclopropyl-12-fluoro-2,10-dimethyl-15-oxo-10,15,16,17-tetrahydro-2H-8,4-(metheno)pyrazolo[4,3-h][2,5,11]benzoxadiazacyclotetradecine-3-carbonitrile] | > 10.15 | 9.62 | 7.87 | 8.99
COc1nn(C)c2c1-c1cnc(N)c(n1)OCc1cc(F)ccc1C(=O)N(C)C2C (single isomer, unassigned) [Example 123, 7-amino-12-fluoro-3-methoxy-1,16,17-trimethyl-16,17-dihydro-1H-8,4-(azeno)pyrazolo[4,3-h][2,5,11]benzoxadiazacyclotetradecin-15(10H)-one] | 6.69 | 6.48 | < 5.00 | 5.32
CCc1nsc2c1-c1cnc(N)c(c1)O[C@H](C)c1cc(F)ccc1C(=O)N(C)C2 [Example 112, (10R)-7-amino-3-ethyl-12-fluoro-10,16-dimethyl-16,17-dihydro-8,4-(metheno)[1,2]thiazolo[4,5-h][2,5,11]benzoxadiazacyclotetradecin-15(10H)-one] | 9.49 | 8.47 | 6.61 | 8.01
CC1Oc2nc(cnc2N)-c2c(C#N)nn3c2C(CC3)N(C)C(=O)c2ccc(F)cc21 [Example 75, (9R)-6-amino-11-fluoro-9,15-dimethyl-14-oxo-9,14,15,15a,16,17-hexahydro-7,3-(azeno)-8-oxa-1,5,15,17a-tetraazabenzo[11,12]cyclotetradeca[1,2,3-cd]pentalene-2-carbonitrile] | 10.19 | 10.02 | 8.15 | 9.04
Cc1n[nH]c2c1-c1cnc(N)c(c1)OCc1cc(F)ccc1OCCC2 [Example 38, 12-fluoro-3-methyl-1,16,17,18-tetrahydro-10H-8,4-(metheno)pyrazolo[3,4-e][1,12,9]benzodioxazacyclopentadecin-7-amine] | 9.21 | 8.24 | 6.70 | 7.92
COc1nn(C)c2c1-c1cnc(N)c(c1)OC(C)c1cccnc1C(=O)N(C)C2 (single isomer, unassigned) [Example 65, 7-amino-3-methoxy-1,10,16-trimethyl-16,17-dihydro-1H-8,4-(metheno)-pyrazolo[4,3-g]pyrido[2,3-l][1,4,10]oxadiazacyclotetradecin-15(10H)-one] | 9.06 | 8.01 | 6.50 | 8.03
COc1noc2c1-c1cnc(N)c(c1)O[C@H](C)c1cc(F)ccc1C(=O)N(C)C2 [Example 111, (10R)-7-amino-12-fluoro-3-methoxy-10,16-dimethyl-16,17-dihydro-8,4-(metheno)[1,2]oxazolo[4,5-h][2,5,11]benzoxadiazacyclotetradecin-15(10H)-one] | 10.23 | 9.27 | 7.49 | 8.85
COc1nccc2c1-c1cnc(N)c(n1)OC(C)c1cc(F)ccc1C(=O)N(C)C2 (single isomer, unassigned) [Example 30, 8-amino-13-fluoro-4-methoxy-11,17-dimethyl-17,18-dihydro-9,5-(azeno)pyrido[3,4-h][2,5,11]benzoxadiazacyclotetradecin-16(11H)-one] | > 9.70 | 9.17 | 7.17 | 8.58
CCc1noc2c1-c1cnc(N)c(n1)O[C@H](C)c1cc(F)ccc1C(=O)N(C)C2 [Example 47, (10R)-7-amino-3-ethyl-12-fluoro-10,16-dimethyl-16,17-dihydro-8,4-(azeno)[1,2]oxazolo[4,5-h][2,5,11]benzoxadiazacyclotetradecin-15(10H)-one] | 9.54 | 8.44 | 6.68 | 
C[C@H]1Oc2cc(cnc2N)-c2c(nnn2C2CC2)CN(C)C(=O)c2ccc(F)cc21 [Example 137, (10R)-7-amino-3-cyclopropyl-12-fluoro-10,16-dimethyl-16,17-dihydro-3H-8,4-(metheno)[1,2,3]triazolo[4,5-h][2,5,11]benzoxadiazacyclotetradecin-15(10H)-one] | 8.21 | 7.14 | 5.64 | 
CN1Cc2ccccc2-c2cnc(N)c(c2)OCc2cc(F)ccc2C1=O [Example 7, 8-amino-3-fluoro-17-methyl-16,17-dihydro-7,11-(metheno)dibenzo[g,l]-[1,4,10]oxadiazacyclotetradecin-18(5H)-one] |  | 7.85 | 5.57 | 6.81
CC1Oc2cc(cnc2N)-c2c(C(C)(C)C)nn(C)c2CN(C)C(=O)c2ncccc21 (single isomer, unassigned) [Example 68, 7-amino-3-tert-butyl-1,10,16-trimethyl-16,17-dihydro-1H-8,4-(metheno)pyrazolo[4,3-g]pyrido[2,3-l][1,4,10]oxadiazacyclotetradecin-15(10H)-one] | 6.68 | < 5.82 |  | 
COc1nn(C)c2c1-c1cnc(N)c(c1)OC(CF)c1cc(F)ccc1C(=O)N(C)C2 (single isomer, unassigned) [Example 87, 7-amino-12-fluoro-10-(fluoromethyl)-3-methoxy-1,16-dimethyl-16,17-dihydro-1H-8,4-(metheno)pyrazolo[4,3-h][2,5,11]benzoxadiazacyclotetradecin-15(10H)-one] | 6.57 | 7.29 |  | 
COc1nn(C)c2c1-c1cnc(N)c(c1)OC(C)c1cccnc1C(=O)N(C)C2 (single isomer, unassigned) [Example 66, 7-amino-3-methoxy-1,10,16-trimethyl-16,17-dihydro-1H-8,4-(metheno)-pyrazolo[4,3-g]pyrido[2,3-l][1,4,10]oxadiazacyclotetradecin-15(10H)-one] | 7.71 | 6.91 |  | 
Cn1nc2c(c1C#N)-c1cnc(N)c(n1)OCc1cc(F)ccc1COC2 [Example 107, 7-amino-12-fluoro-2-methyl-2,10,15,17-tetrahydro-8,4-(azeno)pyrazolo[4,3-h][2,11,5]benzodioxazacyclotetradecine-3-carbonitrile] | 7.05 | 6.75 |  | 
CC1Oc2nc(cnc2N)-c2c(nn(C)c2C#N)COCc2ccc(F)cc21 (stereo not shown) [Example 104, 7-amino-12-fluoro-2,10-dimethyl-2,10,15,17-tetrahydro-8,4-(azeno)pyrazolo[4,3-h][2,11,5]benzodioxazacyclotetradecine-3-carbonitrile] | 8.08 | 7.24 |  | 
Cn1ncc2c1-c1cnc(N)c(c1)OCc1cc(F)ccc1OCCCCC2 [Example 42, 12-fluoro-1-methyl-1,4,5,6,7,8-hexahydro-14H-16,20-(metheno) pyrazolo[4,3-g][1,14,11]benzodioxazacycloheptadecin-17-amine] | 6.30 | 8.54 |  | 
7-amino-12-fluoro-3-methoxy-1,16,17-trimethyl-16,17-dihydro-1H-8,4-(azeno)pyrazolo[4,3-h][2,5,11]benzoxadiazacyclotetradecin-15(10H)-one [Example 128] | 6.86 | 6.41 |  | 
CN1Cc2nn(C)c(C#N)c2-c2cnc(N)c(n2)O[C@@H](CF)c2cc(F)ccc2C1=O [Example 94, (10R)-7-amino-12-fluoro-10-(fluoromethyl)-2,16-dimethyl-15-oxo-10,15,16,17-tetrahydro-2H-8,4-(azeno)pyrazolo[4,3-h][2,5,11]benzoxadiazacyclotetradecine-3-carbonitrile] | 6.03 | 6.16 |  | 
